# Results from patent US7833967B2, “Synthetic antimicrobial polypeptides” (priority 2003, dated 2010).
# Tested on: E. coli TOP10
# Assay: Suicide expression system (SES) growth inhibition
# Format: cell-based
# Conditions: Table 1; 0.1% inducer (arabinose), pBAD/gIIIA in E. coli TOP10, Bioscreen C 37° C., end point OD450 vs control vector
row,Substance,Growth inhibition (%)
1,10 (RRRPFRPPFRPPFRPPFRPPFRPPFRP; Synthetic antimicrobial peptide) [compound 10],78%

# Same assay, conditions: Table 2; variants of SEQ ID NO:1, re-tested in the Bioscreen C
row,Substance,Growth inhibition (%)
1,18 (RRRPPRLPPRFPPRFPPRIPPRFPPRI; Synthetic antimicrobial peptide) [compound 18],99%
2,15 (RRRPPRFPPRIPPRLPPRVPPRVPPRL; Synthetic antimicrobial peptide) [compound 15],57%
3,22 (RRRPPRLPPRFPPRFPPRVPPRLPPRF; Synthetic antimicrobial peptide) [compound 22],81%

# Same assay, conditions: Table 3; variants of SEQ ID NO:5, re-tested in the Bioscreen C
row,Substance,Growth inhibition (%)
1,59 (RRRPRPIPRPFPRPIPRPVPRPFPRPF; Synthetic antimicrobial peptide) [compound 59],75%
2,32 (RRRPRPFPRPFPHPIPRPLPRPFPRPI; Synthetic antimicrobial peptide) [compound 32],77%
3,44 (RRRPRPFPRPFPRPLPRPFPRPVPRPF; Synthetic antimicrobial peptide) [compound 44],95%
4,61 (RRRPRPVPRPFPRPVPRPLPRPFPRPF; Synthetic antimicrobial peptide) [compound 61],97%

# Same assay, conditions: Table 4; variants of SEQ ID NO:10, re-tested in the Bioscreen C
row,Substance,Growth inhibition (%)
1,128 (RRRPFRPPFRPPLRPPFRPPVRPPLRP; Synthetic antimicrobial peptide) [compound 128],69%
2,157 (RRRPIRPPFRPPIRPPFRPPVRPPLRP; Synthetic antimicrobial peptide) [compound 157],64%
3,79 (RRRPFRPPFRPPFRPPVRPPVRPPFRP; Synthetic antimicrobial peptide) [compound 79],82%
4,112 (RRRPFRPPIRPPFRPPVRPPVRPPVRP; Synthetic antimicrobial peptide) [compound 112],69%
5,129 (RRRPFRPPFRPPVRPPFRPPIRPPLRP; Synthetic antimicrobial peptide) [compound 129],69%
6,172 (RRRPFRPPIRPPFRPPIRPPVRPPFRP; Synthetic antimicrobial peptide) [compound 172],82%
7,173 (RRRPLRPPIRPPLRPPVRPPFRPPFRP; Synthetic antimicrobial peptide) [compound 173],81%
8,192 (RRRPFRPPFRPPFRPPVRPPVRPPFRP; Synthetic antimicrobial peptide) [compound 192],92%
9,183 (RRRPFRPPVRPPLRPPFRPPFRPPFRP; Synthetic antimicrobial peptide) [compound 183],80%
10,113 (RRRPLRPPVRPPFRPPVRPPFRPPFRP; Synthetic antimicrobial peptide) [compound 113],75%
11,101 (RRRPIRPPFRPPLRPPFRPPIRPPIRP; Synthetic antimicrobial peptide) [compound 101],81%
12,170 (RRRPIRPPFRPPFRPPFRPPVRPPFRP; Synthetic antimicrobial peptide) [compound 170],80%
13,95 (RRRPFRPPLRPPLRPPIRPPVRPPFRP; Synthetic antimicrobial peptide) [compound 95],80%
14,159 (RRRPVRPPIRPPIRPPVRPPLRPPVRP; Synthetic antimicrobial peptide) [compound 159],35%
15,186 (RRRPIRPPIRPPIRPPFRPPFRPPFRP; Synthetic antimicrobial peptide) [compound 186],77%
16,86 (RRRPIRPPFRPPLRPPLRPPVRPPFRP; Synthetic antimicrobial peptide) [compound 86],74%

row,Substance,Growth inhibition (%)
1,174 (RRRPIRPPIRPPFRPPLRPPFRPPFRP; Synthetic antimicrobial peptide) [compound 174],80%
2,160 (RRRPFRPPVRPPFRPPVRPPFRPPFRP; Synthetic antimicrobial peptide) [compound 160],77%
3,158 (RRRPIRPPFRPPIRPPIRPPIRPPVRP; Synthetic antimicrobial peptide) [compound 158],67%
4,105 (RRRPIRPPLRPPLRPPFRPPFRPPFRP; Synthetic antimicrobial peptide) [compound 105],73%
5,155 (RRRPFRPPFRPPFRPPFRPPFRPPLRP; Synthetic antimicrobial peptide) [compound 155],83%
6,138 (RRRPLRPPFRPPVRPPFRPPFRPPFRP; Synthetic antimicrobial peptide) [compound 138],78%
7,74 (RRRPFRPPVRPPFRPPFRPPIRPPIRP; Synthetic antimicrobial peptide) [compound 74],76%
8,201 (RRRPFRPPIRPPIRPPFRPPIRPPFRP; Synthetic antimicrobial peptide) [compound 201],78%
9,197 (RRRPFRPPFRPPFRPPFRPPLRPPFRP; Synthetic antimicrobial peptide) [compound 197],86%
10,153 (RRRPIRPPFRPPIRPPVRPPIRPPFRP; Synthetic antimicrobial peptide) [compound 153],68%
11,81 (RRRPFRPPIRPPFRPPFRPPVRPPIRP; Synthetic antimicrobial peptide) [compound 81],80%
12,131 (RRRPIRPPFRPPFRPPIRPPIRPPVRP; Synthetic antimicrobial peptide) [compound 131],75%
13,70 (RRRPLRPPLRPPFRPPIRPPLRPPFRP; Synthetic antimicrobial peptide) [compound 70],76%
14,133 (RRRPFRPPIRPPFRPPVRPPIRPPVRP; Synthetic antimicrobial peptide) [compound 133],62%
15,104 (RRRPFRPPFRPPIRPPFRPPFRPPLRP; Synthetic antimicrobial peptide) [compound 104],76%
16,135 (RRRPIRPPIRPPIRPPIRPPIRPPLRP; Synthetic antimicrobial peptide) [compound 135],38%

# Same assay, conditions: Table 5; mixed-motif library, re-tested in the Bioscreen C
row,Substance,Growth inhibition (%)
1,240 (RRRPPRLPRPFPVRPPPRFPRPVPFRP; Synthetic antimicrobial peptide) [compound 240],91%
2,306 (RRRPPRLPRPVPVRPPPRFPRPVPVRP; Synthetic antimicrobial peptide) [compound 306],90%
3,312 (RRRPPRVPRPIPIRPPPRVPRPVPFRP; Synthetic antimicrobial peptide) [compound 312],93%
4,282 (RRRPPRLPRPLPLRPPPRLPHPIPFRP; Synthetic antimicrobial peptide) [compound 282],95%
5,285 (RRRPPRLPRPLPVRPPPRIPRPFPVRP; Synthetic antimicrobial peptide) [compound 285],91%
6,229 (RRRPPRLPRPFPLRPPPRFPRPFPLRP; Synthetic antimicrobial peptide) [compound 229],95%
7,276 (RRRPPRLPRPLPIRPPPRLPRPVPVRP; Synthetic antimicrobial peptide) [compound 276],94%
8,270 (RRRPPRLPRPLPFRPPPRVPRPVPVRP; Synthetic antimicrobial peptide) [compound 270],90%
9,239 (RRRPPRLPRPFPVRPPPRFPRPFPLRP; Synthetic antimicrobial peptide) [compound 239],99%
10,264 (RRRPPRLPRPLPFRPPPRFPRPVPVRP; Synthetic antimicrobial peptide) [compound 264],92%
11,267 (RRRPPRLPRPLPFRPPPRVPRPFPIRP; Synthetic antimicrobial peptide) [compound 267],94%
12,287 (RRRPPRLPRPLPVRPPPRLPRPIPIRP; Synthetic antimicrobial peptide) [compound 287],95%
13,316 (RRRTRHVFARPFPFRPPPRIPRPFPLRP; Synthetic antimicrobial peptide) [compound 316],97%
14,273 (RRRPPRLPRPLPIRPPPRFPRPVPLRP; Synthetic antimicrobial peptide) [compound 273],92%
15,286 (RRRPPRLPRPLPVRPPPRIPRPLPLRP; Synthetic antimicrobial peptide) [compound 286],95%
16,230 (RRRPPRLPRPFPLRPPPRFPRPLPLRP; Synthetic antimicrobial peptide) [compound 230],94%
17,207 (RRRPPRFPRPFPIRPPPRFPRPIPFRP; Synthetic antimicrobial peptide) [compound 207],93%
18,318 (RRRTRHVVPRPLPVRPPPRVPRPFPLRP; Synthetic antimicrobial peptide) [compound 318],93%
19,225 (RRRPPRLPRPFPIRPPPRVPRPIPIRP; Synthetic antimicrobial peptide) [compound 225],97%
